From patent US11591323B2, “Muscarinic agonists as non-steroidal and non-opioid analgesics and methods of use thereof” (Barry University, priority 2019, dated 2023)
“Also recorded” adds a separate entry of the source.

Columns and labels:
Type in all cases: cell-based
[1] = system: ventral tegmental area (M5); test: accumulation of IPX in dissipated rat ventral tegmental area; settings: dissipated rat VTA, in words
Description: (§1) Effects of compounds 6A and 7A were then measured ex vivo in dissipated rat tissues (FIG. 5). Accumulation of IPX was measured in dissipated brain cortex (rich in M1 & M3), submaxillary gland (M1 & M3), and ventral tegmental area (M5). Native tissues express about 10-times less muscarinic receptors than CHO cell lines. Accumulation of cAMP was measured in cerebellum (M2) and striatum (M4).
Rat dissipated tissues: Suspension of dissipated tissues from rat brain cortex, cerebellum, striatum, ventral tegmental area (VTA) and submaxillary glands was prepared as described previously in supplementary methods. Adult 8-weeks old male Wistar rats were scarified by cervical dislocation in accordance with current legislative and guidelines under permission of Czech Ministry of Agriculture 16OZ23113/2017-17214. Tissues were dissected immediately. Submaxillary glands were minced by scissors. Tissues were dispersed by incubation for 15 min at 37° C. in KHB supplemented with trypsin and trituration every 5 min. Large undissipated parts were removed by cell mesh. […]
(§2) Measurements of the production of cAMP and inositol phosphates: Levels of second messengers cAMP and inositol phosphates were determined in radiochemical chromatography assays as described previously. […] Samples were applied to alumina columns (1.5 g of alumina per column), washed with 2 ml ammonium acetate (pH=7.0) and eluted from columns with 4 ml ammonium acetate and measured by liquid scintillation spectrometry. […] After separation of water and organic phases, 0.6 ml of water phase was applied to Dowex columns (1.5 g of Dowex per column), washed by 20 ml of 60 mM ammonium formate/5 mM sodium borate buffer and eluted from columns with 4 ml of 1M ammonium formate/0.1 formic acid buffer and measured by liquid scintillation spectrometry.
To exclude the possibility that the observed effects of compounds 6A and 7A are the result of overexpression in the heterologous system, functional response to the compounds was measured ex vivo in dissipated native rat tissues. […] Accumulation of cAMP was measured in M2-rich cerebellum and M4-rich striatum.

[2] = system: striatum (M4 rich); test: forskolin-stimulated cAMP in dissipated rat striatum; settings: in words
Description: as §1
Rat dissipated tissues: Suspension of dissipated tissues from rat brain cortex, cerebellum, striatum, ventral tegmental area (VTA) and submaxillary glands was prepared as described previously in supplementary methods. Adult 8-weeks old male Wistar rats were scarified by cervical dislocation in accordance with current legislative and guidelines under permission of Czech Ministry of Agriculture 16OZ23113/2017-17214. Tissues were dissected immediately. Submaxillary glands were minced by scissors. Tissues were dispersed by incubation for 15 min at 37° C. in KHB supplemented with trypsin and trituration every 5 min. Large undissipated parts were removed by cell mesh. Then dissipated tissues were centrifuged 3 min at 250×g, re-suspended in KHB and centrifuged again to remove trypsin. Suspension of dissipated tissues was used immediately in experiments. Two submaxillary glands or about 400 mg of brain tissue was used a 96-sample assay.
Measurements of the production of cAMP and inositol phosphates: Levels of second messengers cAMP and inositol phosphates were determined in radiochemical chromatography assays as described previously. To determine level of cAMP, cells in suspension were pre-incubated for 1 h with 0.4 μM [^3H]adenine, washed, and incubated for 10 min in the presence of isobutylmethylxanthine and 10 μM forskolin. […] Incubation was ended by addition of 0.2 ml of 2.5 M HCl to the samples. Samples were applied to alumina columns (1.5 g of alumina per column), washed with 2 ml ammonium acetate (pH=7.0) and eluted from columns with 4 ml ammonium acetate and measured by liquid scintillation spectrometry. […] For this purpose, new CHO cell lines stably expressing promiscuous G15 G-protein and M2 or M4 receptor were generated by transfection with pCMV/hygro vector and hygromycin selection. To determine the rate of formation of inositol phosphates IPX, suspended cells were pre-incubated with 0.1 μM [^3H]myo-inositol for 60 min, washed, and incubated with 10 mM LiCl for 15 min. […] The incubation was stopped by addition of 0.5 ml of chloroform methanol HCl mixture (2:1:0.1). After separation of water and organic phases, 0.6 ml of water phase was applied to Dowex columns (1.5 g of Dowex per column), washed by 20 ml of 60 mM ammonium formate/5 mM sodium borate buffer and eluted from columns with 4 ml of 1M ammonium formate/0.1 formic acid buffer and measured by liquid scintillation spectrometry.
To exclude the possibility that the observed effects of compounds 6A and 7A are the result of overexpression in the heterologous system, functional response to the compounds was measured ex vivo in dissipated native rat tissues. […] Accumulation of IPX was measured in brain cortex, submaxillary gland, and ventral tegmental area (VTA) as brain cortex and submaxillary glands are rich in M1 and in M3 receptors, respectively, and VTA is the only region expressing significant amount of M5 receptors. Accumulation of cAMP was measured in M2-rich cerebellum and M4-rich striatum.

[3] = target: T1, M2 muscarinic receptor (Homo sapiens, UniProt P08172); test: accumulation of cAMP at PTX-treated CHO cells expressing M2; set-up: host or cells: CHO cells, stably transfected; settings: for change in accumulation of cAMP: PTX-treated M2 CHO cells, forskolin-stimulated and basal, in words
T1 sequence (P08172 1-466): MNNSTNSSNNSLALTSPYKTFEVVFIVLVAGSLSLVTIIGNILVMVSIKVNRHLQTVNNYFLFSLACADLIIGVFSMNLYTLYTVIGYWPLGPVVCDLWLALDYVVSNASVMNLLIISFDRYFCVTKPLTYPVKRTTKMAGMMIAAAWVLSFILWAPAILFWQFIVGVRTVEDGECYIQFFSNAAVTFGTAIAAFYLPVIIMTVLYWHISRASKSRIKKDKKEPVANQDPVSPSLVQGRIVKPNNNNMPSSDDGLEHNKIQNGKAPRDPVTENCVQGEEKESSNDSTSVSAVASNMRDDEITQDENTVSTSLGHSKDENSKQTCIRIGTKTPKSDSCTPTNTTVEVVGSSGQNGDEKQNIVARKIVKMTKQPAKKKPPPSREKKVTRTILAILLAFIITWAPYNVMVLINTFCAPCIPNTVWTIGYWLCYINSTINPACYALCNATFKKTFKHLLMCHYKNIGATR
Description: To exclude the possibility that activation of the non-preferential Gs pathway was obscured by activation of the preferential Gi/o pathway, accumulation of cAMP was measured in CHO cells expressing M2 or M4 receptors where Gi/o G-proteins were inactivated by pertussis toxin (PTX) treatment (FIG. 4).
Cell culture and membrane preparation: Chinese hamster ovary (CHO) cells stably transfected with the genes of individual human variants of muscarinic receptors were purchased from Missouri S&T cDNA Resource Center (Rolla, Mo., USA). Fresh primary cell culture of smooth muscle cells (SMC) from rat aorta prepared as previously described was kindly provided by Dr. Lucie Bačáková. Primary culture of SMCs was grown to confluency in 75 cm^2 flasks in Dulbecco's modified Eagle's medium supplemented with 10% fetal bovine serum. Up to 6-times, 2 million of cells were sub-cultured. […] Cells were grown to confluency in 75 cm^2 flasks in Dulbecco's modified Eagle's medium supplemented with 10% fetal bovine serum and 2 million of cells were subcultured in 100 mm Petri dishes. Medium was supplemented with 5 mM butyrate for the last 24 hours of cultivation to increase receptor expression. When needed, cells were cultivated with pertussis toxin at a final concentration of 25 ng/ml for the 24 hours. Cells were detached by mild trypsinization on day 5 after subculture. Detached cells were washed twice in 50 ml of phosphate-buffered saline and 3 min centrifugation at 250×g. […]
as §2
To exclude the possibility that activation of the non-preferential […] pathway was obscured by activation of the preferential Gi/o pathway, accumulation of cAMP was measured in CHO cells expressing M2 or M4 receptors where Gi/o G-proteins were inactivated by pertussis toxin (PTX) treatment (FIG. 11). […]

In the case of C1=CCN(Cc2cccs2)CC1.Cl [Compound 6A, 1-[(thiophen-2-yl)methyl]-1,2,3,6-tetrahydropyridin-1-ium chloride], the “accumulation of IPX” value [1] is reported as “negligible increase in IPX”, the “Emax of inhibition of cAMP synthesis” value [2] is reported as “comparable to inhibition by carbachol” and the “forskolin-stimulated cAMP level” value [2] is reported as “only a decrease in cAMP level”. For the same molecule, the “change in accumulation of cAMP” value [3] was “did not change cAMP levels”.

C[N+]1(Cc2cccs2)CC=CCC1.[I-] (stereo not drawn) [Compound 7A, 1-methyl-1-[(thiophen-2-yl)methyl]-1,2,3,6-tetrahydropyridin-1-ium iodide] was tested, and the “accumulation of IPX” value [1] was “negligible increase in IPX”, the “Emax of inhibition of cAMP synthesis” value [2] was “comparable to inhibition by carbachol” and the “forskolin-stimulated cAMP level” value [2] was “only a decrease in cAMP level”. For the same molecule, the “change in accumulation of cAMP” value [3] was “did not change cAMP levels”.

In the case of C[N+](C)(C)CCOC(N)=O [carbachol, reference compound], the “accumulation of IPX” value [1] is reported as “profound accumulation of IPX”, the “forskolin-stimulated cAMP level” value [2] is reported as “transient decrease in forskolin-stimulated cAMP level at nanomolar concentrations followed by an increase at micromolar concentrations; also recorded: transient decrease in forskolin-stimulated cAMP level at sub-micromolar concentrations followed by an increase at micromolar concentrations” and the “EC50 in PTX treated cells versus non-treated cells” value ([3]; M2) is reported as “the same”. For the same molecule, the “change in accumulation of cAMP” value [3] was “about two-fold increase”.
